Experimental data from patent US8012956B2, “Tropane compounds” (Exelixis, Inc., priority 2007, dated 2011).

target: HSP90 (Homo sapiens, UniProt P07900); test: HSP90 inhibition (HSP90 IC50); type: biochemical

Row | Compound | IC50 [nM]
1 | CC[C@@H](C)Nc1c(C(N)=O)cc(C)c(C(=O)NC2CC3CCC(C2)N3c2ccc(C(=O)C3CC3)cn2)c1Cl (stereo partly drawn) [3-chloro-N4-{8-[5-(cyclopropylcarbonyl)pyridin-2-yl]-8-azabicyclo[3.2.1]oct-3-endo-yl}-5-methyl-2-{[(1R)-1-methylpropyl]amino}benzene-1,4-dicarboxamide] | < 500
2 | Cc1cc(OC(N)=O)ccc1C(=O)N[C@H]1C[C@H]2CC[C@@H](C1)N2c1ccc(C(=O)NCc2ccccc2)cn1 [3-methyl-4-({[8-(5-{[(phenylmethyl)amino]carbonyl}pyridin-2-yl)-8-azabicyclo[3.2.1]oct-3-endo-yl]amino}carbonyl)phenyl carbamate] | 2000 to 10000
3 | Cc1cc(C(N)=O)c(NC2CCC2)cc1C(=O)N[C@H]1C[C@H]2CC[C@@H](C1)N2c1ccc(C(=O)C2CC2)cn1 [5-(cyclobutylamino)-N-{8-[5-(cyclopropylcarbonyl)pyridin-2-yl]-8-azabicyclo[3.2.1]oct-3-endo-yl}-2-methylbenzene-1,4-dicarboxamide] | < 500
4 | Cc1cc(C(N)=O)c(NC2CCCC2)cc1C(=O)N[C@H]1C[C@H]2CC[C@@H](C1)N2c1ccc(C(=O)C2CC2)cn1 [5-(cyclopentylamino)-N-{8-[5-(cyclopropylcarbonyl)pyridin-2-yl]-8-azabicyclo[3.2.1]oct-3-endo-yl}-2-methylbenzene-1,4-dicarboxamide] | < 500
5 | CCC(CC)Nc1cc(C(=O)N[C@H]2C[C@H]3CC[C@@H](C2)N3c2ccc(C(=O)CCC3CCN(C)CC3)cn2)c(C)cc1C(N)=O [5-[(1-ethylpropyl)amino]-2-methyl-N-(8-{5-[3-(1-methylpiperidin-4-yl)propanoyl]pyridin-2-yl}-8-azabicyclo[3.2.1]oct-3-endo-yl)benzene-1,4-dicarboxamide] | < 500
6 | CCC(CC)Nc1cc(C(=O)NC2CC3CCC(C2)N3c2ccc(C(=O)N[C@@H]3CCCN(C(C)C)C3)cn2)c(C)cc1C(N)=O (stereo partly drawn) [5-[(1-ethylpropyl)amino]-2-methyl-N-{8-[5-({[(3R)-1-(1-methylethyl)piperidin-3-yl]amino}carbonyi)pyridin-2-yl]-8-azabicyclo[3.2.1]oct-3-endo-yl}benzene-1,4-dicarboxamide] | < 500
7 | CCC(CC)Nc1cc(C(=O)NC2CC3CCC(C2)N3c2ccc(C(=O)N[C@@H]3CCN(C(C)C)C3)cn2)c(C)cc1C(N)=O (stereo partly drawn) [5-[(1-ethylpropyl)amino]-2-methyl-N-{8-[5-({[(3R)-1-(1-methylethyl)pyrrolidin-3-yl]amino}carbonyl)pyridin-2-yl]-8-azabicyclo[3.2.1]oct-3-endo-yl}benzene-1,4-dicarboxamide] | < 500
8 | CCC(CC)Nc1cc(C(=O)NC2CC3CCC(C2)N3c2ccc(C(=O)NCC3CCCN3CC)cn2)c(C)cc1C(N)=O (stereo not drawn) [5-[(1-ethylpropyl)amino]-N-{8-[5-({[(1-ethylpyrrolidin-2-yl)methyl]amino}carbonyl)pyridin-2-yl]-8-azabicyclo[3.2.1]oct-3-endo-yl}-2-methylbenzene-1,4-dicarboxamide] | < 500
9 | Cc1cc(C(N)=O)c(NCC2CCCC2)cc1C(=O)N[C@H]1C[C@H]2CC[C@@H](C1)N2c1ccc(C(=O)C2CC2)cn1 [5-[(cyclopentylmethyl)amino]-N-{8-[5-(cyclopropylcarbonyl)pyridin-2-yl]-8-azabicyclo[3.2.1]oct-3-endo-yl}-2-methylbenzene-1,4-dicarboxamide] | < 500
10 | NC(=O)c1cc(Br)c(C(=O)N[C@H]2C[C@H]3CC[C@@H](C2)N3c2ccc(C(=O)C3CC3)cn2)cc1N [5-amino-2-bromo-N-{8-[5-(cyclopropylcarbonyl)pyridin-2-yl]-8-azabicyclo[3.2.1]oct-3-endo-yl}benzene-1,4-dicarboxamide] | < 500
11 | Cc1cc(C(N)=O)c(N)cc1C(=O)N[C@H]1C[C@H]2CC[C@@H](C1)N2c1ccc(C(=O)C2CC2)cn1 [5-amino-N-{8-[5-(cyclopropylcarbonyl)pyridin-2-yl]-8-azabicyclo[3.2.1]oct-3-endo-yl}-2-methylbenzene-1,4-dicarboxamide] | < 500
